US20020137929A1, “1 - (3-heterocyclylphenyl) isothiourea, -isourea, -guanidine and -amidine herbicidal agents” (Intellectual Property Department, BASF Aktiengesellschaft, priority 1998, published 2002)

Experiments:
[1] = system: ECHCG (Barnyardgrass); assay: Preemergence herbicidal evaluation; format: in vivo, Echinochloa crus-galli; conditions: rated 4-5 weeks after treatment; for ECHCG rating: preemergence, 0-9 scale
Outline: (§1)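 Preemergence soil application of compound, sprayed in aqueous acetone at rates equivalent to about 0.0156 to 0.500 kg per hectare onto freshly sown cups. Plant response was judged by eye on a 0-9 scale four to five weeks later.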

[2] = system: ECHORC (Watergrass (Calif.)); assay: Preemergence weed control under flooded paddy conditions; format: in vivo, Echinochloa oryzoides; conditions: rated 3-4 weeks after treatment
Outline: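 Silt loam, seeds in top 0.5 cm; flood held 1.5-3 cm; test cpd as acetone/water 50/50 into flood water, ~0.0313-0.500 kg/ha a.i.; greenhouse 3-4 wk; visual 0-9 score vs control.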

[3] = system: SETVI (Foxtail, Green); assay: Preemergence herbicidal evaluation; format: in vivo, Setaria viridis; conditions: rated 4-5 weeks after treatment; for SETVI rating: preemergence, 0-9 scale
Outline: as §1

[4] = system: CHEAL (Lambsquarters, Common); assay: Preemergence herbicidal evaluation; format: in vivo, Chenopodium album; conditions: rated 4-5 weeks after treatment; for CHEAL rating: preemergence, 0-9 scale
Outline: as §1

[5] = system: ECHORC (Watergrass (Calif.)); assay: Postemergence weed control under flooded paddy conditions; format: in vivo, Echinochloa oryzoides; conditions: postemergence weeds
Outline: (§2)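 Weeds 3 to 5 cm tall and rice seedlings at the 1.5 to 2.5 leaf stage were flooded, with water held 1.5 to 3 cm above the soil. Compounds in 50/50 v/v aqueous/acetone went into the flood water at about 0.0313 to 0.500 kg/ha. Visual 0-9 ratings versus control were made 3 to 4 weeks later.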

[6] = system: IPOHE (Morningglory, Ivyleaf); assay: Postemergence herbicidal evaluation; format: in vivo, Ipomoea hederacea; conditions: postemergence
Outline: (§3)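 Herbicidal effect was judged by eye on a 0–9 scale covering stand, vigor, deformity, size and chlorosis, compared with controls, four to five weeks after seedlings about two weeks old were sprayed (40 psi, ~0.0156–0.500 kg/ha).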

[7] = system: TRZAWR (Wheat, Winter, cv Riband); assay: Preemergence herbicidal evaluation; format: in vivo, Triticum aestivum; conditions: rated 4-5 weeks after treatment; for TRZAWR rating: preemergence, 0-9 scale
Outline: as §1

[8] = system: MOOVA (Monochoria); assay: Preemergence weed control under flooded paddy conditions; format: in vivo, Monochoria vaginalis; conditions: rated 3-4 weeks after treatment
Outline: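 Ratings on a 0-9 visual scale cover stand, vigor, malformation, size, chlorosis and overall appearance relative to a control, taken three to four weeks post-treatment. Application was into flood water over freshly sown silt loam at roughly 0.0313 to 0.500 kg/ha.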

[9] = system: IPOHE (Morningglory, Ivyleaf); assay: Preemergence herbicidal evaluation; format: in vivo, Ipomoea hederacea; conditions: rated 4-5 weeks after treatment; for IPOHE rating: preemergence, 0-9 scale
Outline: as §1

[10] = system: CYPIR (Rice Flatsedge); assay: Postemergence weed control under flooded paddy conditions; format: in vivo, Cyperus iria; conditions: postemergence weeds
Outline: as §2

[11] = system: TRZAWR (Wheat, Winter, cv Riband); assay: Postemergence herbicidal evaluation; format: in vivo, Triticum aestivum; conditions: postemergence
Outline: as §3

[12] = system: ABUTH (Velvetleaf); assay: Postemergence herbicidal evaluation; format: in vivo, Abutilon theophrasti; conditions: postemergence
Outline: as §3

[13] = system: ORYSAT (Rice, Tebonnet); assay: Preemergence herbicidal evaluation; format: in vivo, Oryza sativa, (L.) Tebonnet; conditions: rated 4-5 weeks after treatment; for ORYSAT rating: preemergence, 0-9 scale
Outline: as §1

[14] = rate 0.0313 kg/ha, 3-4 weeks after treatment
[15] = rate 0.0625 kg/ha, 3-4 weeks after treatment
[16] = rate 0.1250 kg/ha, 3-4 weeks after treatment
[17] = rate 0.2500 kg/ha, 3-4 weeks after treatment
[18] = Rate 0.0313 kg/ha, rated 3 to 4 weeks after treatment
[19] = Rate 0.0625 kg/ha, rated 3 to 4 weeks after treatment
[20] = Rate 0.1250 kg/ha, rated 3 to 4 weeks after treatment
[21] = Rate 0.2500 kg/ha, rated 3 to 4 weeks after treatment
[22] = Rate 0.5000 kg/ha, rated 3 to 4 weeks after treatment

CCOC(=O)CN1C(=O)C(C)SC1=Nc1cc(-n2c(=O)cc(C(F)(F)F)n(C)c2=O)c(F)cc1Cl (stereo not drawn) [Compound 12]
ECHCG preemergence herbicidal rating ([1]; rate 0.0156 kg/ha): 2.0 | ECHCG preemergence herbicidal rating ([1]; rate 0.0313 kg/ha): 5.0 | ECHCG preemergence herbicidal rating ([1]; rate 0.0625 kg/ha): 6.0 | ECHCG preemergence herbicidal rating ([1]; rate 0.1250 kg/ha): 9.0 | ECHCG preemergence herbicidal rating ([1]; rate 0.2500 kg/ha): 9.0 | Herbicidal rating ECHORC ([2]; 0.0313 kg/ha): 5.0 | Herbicidal rating ECHORC ([2]; 0.0625 kg/ha): 9.0 | Herbicidal rating ECHORC ([2]; 0.1250 kg/ha): 8.5 | Herbicidal rating ECHORC ([2]; 0.2500 kg/ha): 9.0 | SETVI preemergence herbicidal rating ([3]; rate 0.0156 kg/ha): 8.5 | SETVI preemergence herbicidal rating ([3]; rate 0.0313 kg/ha): 9.0 | SETVI preemergence herbicidal rating ([3]; rate 0.0625 kg/ha): 9.0 | SETVI preemergence herbicidal rating ([3]; rate 0.1250 kg/ha): 9.0 | SETVI preemergence herbicidal rating ([3]; rate 0.2500 kg/ha): 9.0 | CHEAL preemergence herbicidal rating ([4]; rate 0.0156 kg/ha): 9.0 | CHEAL preemergence herbicidal rating ([4]; rate 0.0313 kg/ha): 9.0 | CHEAL preemergence herbicidal rating ([4]; rate 0.0625 kg/ha): 9.0 | CHEAL preemergence herbicidal rating ([4]; rate 0.1250 kg/ha): 9.0 | CHEAL preemergence herbicidal rating ([4]; rate 0.2500 kg/ha): 9.0 | Herbicidal rating ECHORC [5, 14]: 5.0 | Herbicidal rating ECHORC [5, 15]: 9.0 | Herbicidal rating ECHORC [5, 16]: 8.5 | Herbicidal rating ECHORC [5, 17]: 9.0 | IPOHE herbicidal rating ([6]; rate 0.0156 kg/ha): 9.0 | IPOHE herbicidal rating ([6]; rate 0.0313 kg/ha): 9.0 | IPOHE herbicidal rating ([6]; rate 0.0625 kg/ha): 9.0 | IPOHE herbicidal rating ([6]; rate 0.1250 kg/ha): 9.0 | TRZAWR preemergence herbicidal rating ([7]; rate 0.0156 kg/ha): 0.0 | TRZAWR preemergence herbicidal rating ([7]; rate 0.0313 kg/ha): 1.0 | TRZAWR preemergence herbicidal rating ([7]; rate 0.0625 kg/ha): 5.0 | TRZAWR preemergence herbicidal rating ([7]; rate 0.1250 kg/ha): 8.0 | TRZAWR preemergence herbicidal rating ([7]; rate 0.2500 kg/ha): 8.0 | Herbicidal rating MOOVA ([8]; 0.0313 kg/ha): 9.0 | Herbicidal rating MOOVA ([8]; 0.0625 kg/ha): 9.0 | Herbicidal rating MOOVA ([8]; 0.1250 kg/ha): 9.0 | Herbicidal rating MOOVA ([8]; 0.2500 kg/ha): 9.0 | IPOHE preemergence herbicidal rating ([9]; rate 0.0156 kg/ha): 4.5 | IPOHE preemergence herbicidal rating ([9]; rate 0.0313 kg/ha): 9.0 | IPOHE preemergence herbicidal rating ([9]; rate 0.0625 kg/ha): 9.0 | IPOHE preemergence herbicidal rating ([9]; rate 0.1250 kg/ha): 9.0 | IPOHE preemergence herbicidal rating ([9]; rate 0.2500 kg/ha): 9.0 | Herbicidal rating CYPIR [10, 14]: 0.0 | Herbicidal rating CYPIR [10, 15]: 0.0 | Herbicidal rating CYPIR [10, 16]: 1.0 | Herbicidal rating CYPIR [10, 17]: 0.0 | TRZAWR herbicidal rating ([11]; rate 0.0156 kg/ha): 5.5 | TRZAWR herbicidal rating ([11]; rate 0.0313 kg/ha): 7.0 | TRZAWR herbicidal rating ([11]; rate 0.0625 kg/ha): 7.5 | TRZAWR herbicidal rating ([11]; rate 0.1250 kg/ha): 7.5 | ABUTH herbicidal rating ([12]; rate 0.0156 kg/ha): 9.0 | ABUTH herbicidal rating ([12]; rate 0.0313 kg/ha): 9.0 | ABUTH herbicidal rating ([12]; rate 0.0625 kg/ha): 9.0 | ABUTH herbicidal rating ([12]; rate 0.1250 kg/ha): 9.0 | ORYSAT preemergence herbicidal rating ([13]; rate 0.0156 kg/ha): 0.0 | ORYSAT preemergence herbicidal rating ([13]; rate 0.0313 kg/ha): 1.0 | ORYSAT preemergence herbicidal rating ([13]; rate 0.0625 kg/ha): 4.0 | ORYSAT preemergence herbicidal rating ([13]; rate 0.1250 kg/ha): 7.0 | ORYSAT preemergence herbicidal rating ([13]; rate 0.2500 kg/ha): 7.0

C=CCN1C(=O)C(CC(N)=O)SC1=Nc1cc(-n2c(=O)cc(C(F)(F)F)n(C)c2=O)c(F)cc1Cl (stereo not drawn) [Compound 99, 3-Allyl-2-{{2-chloro-5-[3,6-dihydro-3-methyl-2,6-dioxo-4-(trifluoromethyl)-1(2H)-pyrimidinyl]-4-fluorophenyl}imino}-4-oxo-5-thiazolidineacetamide]
ECHCG rating ([1]; 0.0156 kg/ha): 0.0 | ECHCG rating ([1]; 0.0313 kg/ha): 0.0 | ECHCG rating ([1]; 0.0625 kg/ha): 0.0 | ECHCG rating ([1]; 0.1250 kg/ha): 1.0 | ECHCG rating ([1]; 0.2500 kg/ha): 1.0 | ECHCG rating ([1]; 0.5000 kg/ha): 7.0 | ECHORC herbicidal effect rating ([2]; 0.0313 kg/ha): 0.0 | ECHORC herbicidal effect rating ([2]; 0.0625 kg/ha): 0.0 | ECHORC herbicidal effect rating ([2]; 0.1250 kg/ha): 0.0 | ECHORC herbicidal effect rating ([2]; 0.2500 kg/ha): 0.0 | ECHORC herbicidal effect rating ([2]; 0.5000 kg/ha): 4.0 | SETVI rating ([3]; 0.0156 kg/ha): 0.0 | SETVI rating ([3]; 0.0313 kg/ha): 1.0 | SETVI rating ([3]; 0.0625 kg/ha): 1.0 | SETVI rating ([3]; 0.1250 kg/ha): 6.0 | SETVI rating ([3]; 0.2500 kg/ha): 7.0 | SETVI rating ([3]; 0.5000 kg/ha): 9.0 | CHEAL rating ([4]; 0.0156 kg/ha): 9.0 | CHEAL rating ([4]; 0.0313 kg/ha): 9.0 | CHEAL rating ([4]; 0.0625 kg/ha): 9.0 | CHEAL rating ([4]; 0.1250 kg/ha): 9.0 | CHEAL rating ([4]; 0.2500 kg/ha): 9.0 | CHEAL rating ([4]; 0.5000 kg/ha): 9.0 | Herbicidal rating ECHORC [5, 18]: 0.0 | Herbicidal rating ECHORC [5, 19]: 0.0 | Herbicidal rating ECHORC [5, 20]: 0.0 | Herbicidal rating ECHORC [5, 21]: 0.0 | Herbicidal rating ECHORC [5, 22]: 4.0 | herbicidal rating IPOHE ([6]; rate 0.0156 kg/ha): 9.0 | herbicidal rating IPOHE ([6]; rate 0.0313 kg/ha): 9.0 | IPOHE herbicidal rating ([6]; rate 0.0625 kg/ha): 9.0 | IPOHE herbicidal rating ([6]; rate 0.1250 kg/ha): 9.0 | TRZAWR rating ([7]; 0.0156 kg/ha): 0.0 | TRZAWR rating ([7]; 0.0313 kg/ha): 0.0 | TRZAWR rating ([7]; 0.0625 kg/ha): 1.0 | TRZAWR rating ([7]; 0.1250 kg/ha): 1.0 | TRZAWR rating ([7]; 0.2500 kg/ha): 4.0 | TRZAWR rating ([7]; 0.5000 kg/ha): 5.0 | MOOVA herbicidal effect rating ([8]; 0.0313 kg/ha): 9.0 | MOOVA herbicidal effect rating ([8]; 0.0625 kg/ha): 9.0 | MOOVA herbicidal effect rating ([8]; 0.1250 kg/ha): 9.0 | MOOVA herbicidal effect rating ([8]; 0.2500 kg/ha): 9.0 | MOOVA herbicidal effect rating ([8]; 0.5000 kg/ha): 9.0 | IPOHE rating ([9]; 0.0156 kg/ha): 0.0 | IPOHE rating ([9]; 0.0313 kg/ha): 0.0 | IPOHE rating ([9]; 0.0625 kg/ha): 9.0 | IPOHE rating ([9]; 0.1250 kg/ha): 9.0 | IPOHE rating ([9]; 0.2500 kg/ha): 9.0 | IPOHE rating ([9]; 0.5000 kg/ha): 9.0 | Herbicidal rating CYPIR [10, 18]: 0.0 | Herbicidal rating CYPIR [10, 19]: 0.0 | Herbicidal rating CYPIR [10, 20]: 0.0 | Herbicidal rating CYPIR [10, 21]: 0.0 | Herbicidal rating CYPIR [10, 22]: 0.0 | herbicidal rating TRZAWR ([11]; rate 0.0156 kg/ha): 4.0 | herbicidal rating TRZAWR ([11]; rate 0.0313 kg/ha): 4.5 | TRZAWR herbicidal rating ([11]; rate 0.0625 kg/ha): 5.5 | TRZAWR herbicidal rating ([11]; rate 0.1250 kg/ha): 6.5 | herbicidal rating ABUTH ([12]; rate 0.0156 kg/ha): 9.0 | herbicidal rating ABUTH ([12]; rate 0.0313 kg/ha): 9.0 | ABUTH herbicidal rating ([12]; rate 0.0625 kg/ha): 9.0 | ABUTH herbicidal rating ([12]; rate 0.1250 kg/ha): 9.0 | ORYSAT rating ([13]; 0.0156 kg/ha): 0.0 | ORYSAT rating ([13]; 0.0313 kg/ha): 0.0 | ORYSAT rating ([13]; 0.0625 kg/ha): 1.0 | ORYSAT rating ([13]; 0.1250 kg/ha): 1.0 | ORYSAT rating ([13]; 0.2500 kg/ha): 4.0 | ORYSAT rating ([13]; 0.5000 kg/ha): 4.0
